Laboratory results as given in article PMC5458547, “Discovery of first-in-class reversible dual small molecule inhibitors against G9a and DNMTs in hematological malignancies” (Nature Communications, 2017).
Like-named read-outs stand apart in the source and are kept apart here.

How the values were obtained:
[1] = target: T1, human DNMT1 enzyme (Homo sapiens, UniProt P26358); experiment: DNMT1 enzyme activity assay (TR-FRET); assay type: biochemical; conditions: internally determined
T1 construct: purchased

[2] = test system: CEMO-1; experiment: Cell proliferation assay (MTS); assay type: cell-based, human; conditions: 48 h
[3] = test system: LAL-CUN-2; experiment: Cell proliferation assay (MTS); assay type: cell-based; conditions: Homo sapiens, 48 h
[4] = test system: OCI-Ly3; experiment: Cell proliferation assay (MTS); assay type: cell-based; conditions: Homo sapiens
[5] = test system: OCI-Ly10; experiment: Cell proliferation assay (MTS); assay type: cell-based, human; conditions: Homo sapiens, OCI-Ly10, 48 h
[6] = test system: MV4-11; experiment: Cell proliferation assay (MTS); assay type: cell-based; conditions: Homo sapiens
[7] = test system: OCI-AML-2; experiment: Cell proliferation assay (MTS); assay type: cell-based, human
[8] = target: T2, G9a (Homo sapiens, UniProt Q96KQ7); experiment: G9a enzyme activity assay (TR-FRET); assay type: biochemical; conditions: for IC50: TR-FRET, internally determined
T2 sequence (Q96KQ7 1-1210): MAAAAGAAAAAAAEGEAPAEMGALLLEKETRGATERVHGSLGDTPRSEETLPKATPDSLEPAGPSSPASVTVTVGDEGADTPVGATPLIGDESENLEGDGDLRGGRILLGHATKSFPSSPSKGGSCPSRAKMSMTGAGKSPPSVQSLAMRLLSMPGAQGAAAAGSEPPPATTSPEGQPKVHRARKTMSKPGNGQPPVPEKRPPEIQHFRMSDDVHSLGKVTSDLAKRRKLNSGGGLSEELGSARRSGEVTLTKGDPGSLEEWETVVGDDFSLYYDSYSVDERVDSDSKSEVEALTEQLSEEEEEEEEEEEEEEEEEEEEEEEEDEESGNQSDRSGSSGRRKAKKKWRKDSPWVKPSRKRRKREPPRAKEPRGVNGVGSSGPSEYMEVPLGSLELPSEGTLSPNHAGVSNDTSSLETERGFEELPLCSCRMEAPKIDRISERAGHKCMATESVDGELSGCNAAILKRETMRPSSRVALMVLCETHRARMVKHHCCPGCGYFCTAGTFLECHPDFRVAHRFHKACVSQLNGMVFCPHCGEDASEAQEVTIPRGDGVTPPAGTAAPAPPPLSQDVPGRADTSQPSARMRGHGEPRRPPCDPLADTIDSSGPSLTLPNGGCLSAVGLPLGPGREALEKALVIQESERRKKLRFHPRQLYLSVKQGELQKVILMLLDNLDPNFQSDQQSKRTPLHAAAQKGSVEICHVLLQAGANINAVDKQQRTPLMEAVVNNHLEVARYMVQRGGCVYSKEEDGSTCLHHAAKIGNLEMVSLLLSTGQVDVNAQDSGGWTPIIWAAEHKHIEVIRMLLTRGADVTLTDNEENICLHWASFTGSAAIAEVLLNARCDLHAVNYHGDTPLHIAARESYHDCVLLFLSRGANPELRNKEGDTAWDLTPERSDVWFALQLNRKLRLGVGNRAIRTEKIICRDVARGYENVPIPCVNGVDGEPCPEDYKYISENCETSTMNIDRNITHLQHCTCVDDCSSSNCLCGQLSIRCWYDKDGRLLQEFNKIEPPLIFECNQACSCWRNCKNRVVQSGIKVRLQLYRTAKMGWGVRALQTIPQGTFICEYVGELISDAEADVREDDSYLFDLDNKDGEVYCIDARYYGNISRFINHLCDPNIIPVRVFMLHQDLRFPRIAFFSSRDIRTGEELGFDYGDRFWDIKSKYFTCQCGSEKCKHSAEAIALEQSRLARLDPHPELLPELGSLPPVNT

[9] = target: T3, DNMT1 catalytic domain (501-1632) (Homo sapiens, UniProt P26358); experiment: SPR on immobilised DNMT1; assay type: binding
T3 construct: Flag (N); purchased
Text: We have indeed tried to measure the affinity of the reported compounds for DNMT1 using SPR. For that, we attempted SPR experiments using the two different DNMT1 protein constructs we can purchase: A full length DNMT1 with an N-terminal GST fusion, and a shorter construct containing the […]
First, we immobilized GST-tagged full length DNMT1 to a chip containing anti-GST antibody, but the amount immobilized was only 8% of the GST Ab chip capacity, and insufficient to detect binding of the ca. 500 Da compounds, presumably due to steric impediments resulting from the large size (dimer of 209 kDa monomers) of the GST-DNMT1 fusion protein. The theoretical SPR signal expected for the compounds binding with a 1:1 stoichiometry to the amount of protein immobilized (2300 RU) is only 5 response units (RU), with the precision of our BiacoreX100 SPR instrument typically being 1- […]
reference channels at 5 µM, indicating unspecific binding to the chip surface/Ab/GST, and very likely masking their possible direct binding to DNMT1. Compound injections at 200 µM […]
differential increase in the DNMT1 channel that indicates non-reversible binding with a high stoichiometry (responses of 81 and 65 RU, respectively; with 5 RU expected for a 1:1 binding), likely resulting from aggregation of the compounds at 200 µM concentration in the DNMT1 channel. […]
properly measured. […]

[10] = Homo sapiens, ALL, read-out: GI50
[11] = Homo sapiens, CEMO-1, 48 h, as used in apoptosis assay, read-out: GI50
[12] = OCI-Ly3, ABC-DLBCL, 48 h, read-out: GI50
[13] = ABC-DLBCL, 48 h, read-out: GI50
[14] = MV4-11, AML, 48 h, read-out: GI50
[15] = Homo sapiens, OCI-AML2, AML, 48 h, read-out: GI50

T1 sequence (P26358 whole entry): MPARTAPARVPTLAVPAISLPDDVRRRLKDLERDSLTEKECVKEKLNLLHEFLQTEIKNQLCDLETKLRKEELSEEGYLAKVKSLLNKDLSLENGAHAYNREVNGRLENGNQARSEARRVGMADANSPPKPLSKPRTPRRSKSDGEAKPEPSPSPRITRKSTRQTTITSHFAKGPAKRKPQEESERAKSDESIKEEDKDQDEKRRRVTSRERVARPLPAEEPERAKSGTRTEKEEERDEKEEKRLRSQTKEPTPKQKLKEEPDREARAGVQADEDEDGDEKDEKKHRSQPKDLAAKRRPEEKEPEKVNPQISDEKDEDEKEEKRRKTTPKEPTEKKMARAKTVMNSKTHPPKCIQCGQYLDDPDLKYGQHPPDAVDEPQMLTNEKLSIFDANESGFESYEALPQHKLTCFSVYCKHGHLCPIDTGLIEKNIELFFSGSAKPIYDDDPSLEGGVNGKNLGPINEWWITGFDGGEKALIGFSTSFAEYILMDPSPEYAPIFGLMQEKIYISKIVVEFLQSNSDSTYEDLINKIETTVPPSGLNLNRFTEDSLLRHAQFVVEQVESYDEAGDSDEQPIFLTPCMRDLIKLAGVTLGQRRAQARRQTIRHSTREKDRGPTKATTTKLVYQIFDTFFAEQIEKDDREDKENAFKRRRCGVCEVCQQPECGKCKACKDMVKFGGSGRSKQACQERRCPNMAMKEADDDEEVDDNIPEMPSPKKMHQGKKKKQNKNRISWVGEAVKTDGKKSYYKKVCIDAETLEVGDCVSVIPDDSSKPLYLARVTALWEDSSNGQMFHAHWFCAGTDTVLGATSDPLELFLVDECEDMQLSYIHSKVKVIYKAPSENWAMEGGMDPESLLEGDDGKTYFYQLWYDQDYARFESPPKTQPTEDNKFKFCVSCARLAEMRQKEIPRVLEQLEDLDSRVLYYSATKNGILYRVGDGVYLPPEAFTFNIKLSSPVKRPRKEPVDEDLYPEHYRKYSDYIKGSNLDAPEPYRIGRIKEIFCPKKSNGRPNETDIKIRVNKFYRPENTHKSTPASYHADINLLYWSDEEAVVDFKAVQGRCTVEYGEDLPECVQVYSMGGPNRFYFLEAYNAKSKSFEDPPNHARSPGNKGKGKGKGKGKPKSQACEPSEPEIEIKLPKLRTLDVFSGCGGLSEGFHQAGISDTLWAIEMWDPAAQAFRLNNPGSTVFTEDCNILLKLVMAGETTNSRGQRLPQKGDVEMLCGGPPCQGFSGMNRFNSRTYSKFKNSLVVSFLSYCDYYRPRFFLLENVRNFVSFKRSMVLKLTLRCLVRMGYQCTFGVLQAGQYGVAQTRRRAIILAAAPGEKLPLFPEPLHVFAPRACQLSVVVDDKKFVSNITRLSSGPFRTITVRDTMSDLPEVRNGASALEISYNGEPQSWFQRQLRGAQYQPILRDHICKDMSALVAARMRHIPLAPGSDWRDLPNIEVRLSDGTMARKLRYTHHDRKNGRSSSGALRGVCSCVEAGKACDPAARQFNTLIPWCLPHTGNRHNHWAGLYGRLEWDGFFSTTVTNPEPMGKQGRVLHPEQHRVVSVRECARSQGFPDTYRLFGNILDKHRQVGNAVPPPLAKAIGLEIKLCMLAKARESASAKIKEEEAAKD
T3 sequence (P26358 485-1616): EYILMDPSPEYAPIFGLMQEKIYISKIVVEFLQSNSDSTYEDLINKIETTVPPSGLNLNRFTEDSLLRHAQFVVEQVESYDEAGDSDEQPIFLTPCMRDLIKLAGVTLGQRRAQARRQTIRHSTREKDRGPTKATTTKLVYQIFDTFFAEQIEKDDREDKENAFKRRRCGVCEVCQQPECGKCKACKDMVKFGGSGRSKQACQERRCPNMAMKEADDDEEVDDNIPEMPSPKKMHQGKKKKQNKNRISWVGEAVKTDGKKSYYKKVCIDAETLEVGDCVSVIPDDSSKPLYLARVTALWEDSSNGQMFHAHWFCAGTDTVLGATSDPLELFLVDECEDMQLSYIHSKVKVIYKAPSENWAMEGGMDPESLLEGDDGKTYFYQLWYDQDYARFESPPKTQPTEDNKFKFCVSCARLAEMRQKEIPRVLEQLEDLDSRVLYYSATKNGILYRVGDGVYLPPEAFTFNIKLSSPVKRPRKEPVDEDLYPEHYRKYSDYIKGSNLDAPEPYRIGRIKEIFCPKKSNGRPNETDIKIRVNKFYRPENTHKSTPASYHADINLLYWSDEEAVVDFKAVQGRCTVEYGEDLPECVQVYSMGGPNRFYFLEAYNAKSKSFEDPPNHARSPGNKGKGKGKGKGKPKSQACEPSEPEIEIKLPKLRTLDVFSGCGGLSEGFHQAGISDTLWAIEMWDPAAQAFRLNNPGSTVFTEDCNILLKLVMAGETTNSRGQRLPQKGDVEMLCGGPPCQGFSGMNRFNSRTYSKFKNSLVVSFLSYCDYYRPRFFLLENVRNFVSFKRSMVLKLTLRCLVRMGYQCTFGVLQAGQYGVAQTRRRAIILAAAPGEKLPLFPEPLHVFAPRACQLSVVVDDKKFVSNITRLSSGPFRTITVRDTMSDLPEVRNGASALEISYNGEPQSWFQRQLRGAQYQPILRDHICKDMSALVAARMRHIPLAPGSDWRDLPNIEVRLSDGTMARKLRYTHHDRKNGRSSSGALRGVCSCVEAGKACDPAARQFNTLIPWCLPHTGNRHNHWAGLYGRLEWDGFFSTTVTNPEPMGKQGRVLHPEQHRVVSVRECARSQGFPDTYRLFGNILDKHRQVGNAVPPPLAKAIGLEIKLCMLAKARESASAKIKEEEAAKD

SMILES	GI50 [2, 10] [µM]	GI50 [2, 11] [µM]	GI50 ([3]; ALL, read-out: GI50) [µM]	GI50 [4, 12] [µM]	GI50 [5, 13] [µM]	GI50 [6, 14] [µM]	GI50 [7, 15] [µM]	other results
COc1cc2nc(N3CCCN(C)CC3)nc(NC3CCN(Cc4ccccc4)CC3)c2cc1OC [BIX-01294]	2.91	2.9	5.94	> 4	> 4	11.9	6.32	IC50 [1]: > 10 µM
COc1cc2c(cc1OCCCN1CCCC1)N=C(N)C21CCC1 [A-366]								GI50 ([7]; OCI-AML-2, combination study set-up, read-out: GI50): > 50 µM
Nc1ncn([C@H]2C[C@H](O)[C@@H](CO)O2)c(=O)n1 [Decitabine, decitabine]								IC50 [8]: > 10 µM; GI50 ([2]; ALL): 0.49 µM; GI50 ([2]; Homo sapiens, ALL): 0.506 µM; GI50 [3]: > 22.4 µM; GI50 ([4]; OCI-Ly3, 48 h): > 4 µM; GI50 [5]: > 4 µM; GI50 ([6]; MV4-11, 48 h): > 50 µM; GI50 ([7]; Homo sapiens, OCI-AML2, 48 h): > 10 µM
Nc1ncn([C@@H]2O[C@H](CO)[C@@H](O)[C@H]2O)c(=O)n1 [Azacitidine, azacitidine]	3.96	7.7	21.2	1.93	2.6	5.56	> 10	IC50 [8]: > 10 µM
C[S+](CC[C@H](N)C(=O)[O-])C[C@H]1O[C@@H](n2cnc3c(N)ncnc32)[C@H](O)[C@@H]1O (stereo partly drawn) [SAM, S-adenosyl-L-methionine]								Kd [9]: 15 to 20 µM
COc1cc2c(NC3CCN(C(C)C)CC3)nc(C3CCCCC3)nc2cc1OCCCN1CCCC1 [UNC-0638]	4.73	4.7	5.18	> 4	> 4	12	7.33	
COc1cc2c(OC3CCN(C)CC3)cc(-c3ccc(C)o3)nc2cc1OCCCN1CCCC1 [CM-1021, 6-methoxy-2-(5-methyl-2-furyl)-4-[(1-methyl-4-piperidyl)oxy]-7-(3-pyrrolidin-1-ylpropoxy)quinoline]								reduction of primary activity (4-oxyquinoline vs 4-aminoquinoline) ([8]; secondary amine replaced by ether): more than 2.5 log units
